Assay results: patent US11840495B2, “Compositions and methods related to di-substituted bicyclo[2.2.1] heptanamine-containing compounds” (The Broad Institute, Inc., priority 2020, dated 2023)
Counter-ions that a name gives are not always drawn. Like-named read-outs stand apart in the source and are kept apart here.

What was measured:
MUC1-wt = test: Immunofluorescence imaging of MUC1-wt in P cells (Example 2); assay type: cell-based; details: for EC50: 48 hr incubation, MUC1-wt; for WT ECMax (%) / WT EMax: 48 hr; for WT ECMax (%): DMSO = 0, JQ1 (250 nM) = −100% activity; for WT EMax: DMSO = 0, JQ1 = −100% activity, in %
Description: (§1) P cells were seeded 24 hr prior to compound treatment at a density of 12,000 cells/well in 384 well Cell Carrier Ultra plates (6057308, Perkin Elmer), pre-coated with 0.25 mg/mL Synthemax II SC Substrate (3535, Corning). Compounds were used at 5 doses (35, 3.5, 0.35, 0.035 and 0.0035 μM) for the primary screen and 10 doses (16, 5.6, 1.8, 0.6, 0.21, 0.07, 0.02, 0.008, 0.002 and 0.0008 μM) for the following screens. The compounds, in two replicates, were transferred from compound source plates to the cell plates using the HighRes Pin Tool. DMSO was used as a negative control and JQ1 (250 nM) (a bromodomain inhibitor) was chosen as a positive control, based on earlier studies showing its potent effect on reducing total MUC1 mRNA levels (data not shown). After 48 hr incubation, cells were fixed for 20 min in 4% PFA (Electron Microscopy Sciences) in PBS, washed twice, then permeabilized (10 min) with 0.5% Triton-X100 (X100-100ML, Sigma-Aldrich) in PBS and washed once more. Cells were blocked for 10 min at RT with Blocking solution (100 mM Tris HCL pH8; 150 mM NaCL; 5 g/L Blocking Reagent [11096176001, Roche]), then incubated 90 min at RT with one of the following primary antibodies in Roche Blocking solution: 1:500, monoclonal Fab-A-VSH anti-MUC1-fs, AbD22655.2, Bio-Rad; 1:2000, monoclonal mouse anti-MUC1 (214D4), 05-652-KC, Millipore; 1:1000, monoclonal, Rabbit anti-GM130 (D6B1) XP, 12480, Cell signaling technology. The primary antibody cocktail was incubated at RT for 1.5 hr, followed by four PBS wash cycles. The secondary antibody cocktail contained four components that were all prepared at a 1:1000 dilution in the Roche blocking solution and consisted of Alexa Fluor® 488-conjugated AffiniPure F(ab′)2 Fragment Goat anti-Human IgG, 109-546-097, Jackson Immunoresearch; Alexa Fluor® 647-conjugated Goat anti-Rabbit IgG, A-21246, Thermo Fisher Scientific®; Alexa Fluor® 546 Goat anti-mouse IgG, A-21123, Thermo Fisher Scientific® and Hoechst 33342 stain (62249, Thermo Fisher Scientific®). The secondary antibody cocktail was incubated at RT for 45 min, followed by four PBS wash cycles. Finally, plates were sealed with a Plate Loc plate and stored in Liconic incubator at 10° C. until imaging. Following image analysis, three parameters were selected, i) MUC1-fs and ii) MUC1-wt total cytoplasm intensity (averaged per cell) and iii) cell number as was detected by Hoechst 33342 stained nuclei. The levels of MUC1-fs and MUC1-wt found following DMSO and JQ1 were defined as 0 and −100% activity, respectively. The values obtained for all compounds were normalized accordingly. Cell number was normalized to DMSO control.

MUC1-fs = test: Immunofluorescence imaging of MUC1-fs in P cells (Example 2); assay type: cell-based; details: for EC50: 48 hr incubation, MUC1-fs; for ECMax (%) / Emax: 48 hr; for ECMax (%): DMSO = 0, JQ1 (250 nM) = −100% activity; for Emax: DMSO = 0, JQ1 = −100% activity, in %
Description: as §1

EC50 (MUC1-wt; read-out: WT EC50 (Cytoplasm)) [µM] | EC50 (MUC1-fs; read-out: EC50(Spot)) [µM] | EC50 (MUC1-wt; read-out: WT EC50) [µM] | EC50 (MUC1-fs; read-out: EC50) [µM] | Compound | WT ECMax (%) (MUC1-wt) | ECMax (%) (MUC1-fs) | WT EMax (MUC1-wt) | Emax (MUC1-fs) | WT EMax (MUC1-wt; hydrochloride) | Emax (MUC1-fs; hydrochloride)
> 32 | 1.04 |  |  | C[C@@H]1CC[C@]2(C1)[C@@H]1CC[C@@H](C1)[C@@H]2N.Cl [Compound 210-P2-A] | −8.9 | −62.63 |  |  |  | 
> 32 | 0.12 |  |  | CC1CC[C@]2(C1)[C@H]1CC[C@H](C1)[C@H]2N.Cl (mixture of isomers) [Compound 210] | −10.67 | −62.47 |  |  |  | 
10.3 | 0.088 |  |  | CC1(C)[C@H]2CC[C@H](C2)[C@H]1N (single isomer, unassigned) [Compound 201-P1, hydrochloride] | 63 | −94.91 |  |  |  | 
> 32 | 5 |  |  | C[C@H]1CC[C@]2(C1)[C@H]1CC[C@H](C1)[C@H]2N.Cl [Compound 211-P1-B] | 9.31 | −61.55 |  |  |  | 
 |  | 1.8 | 0.006 | NC1C2CCC(C2)C12CC1CCC2C1 (racemic) [Compound 238-A, rac-2,2′-spirobi[bicyclo[2.2.1]heptan]-3-amine] |  |  | 38.7 | −108.1 |  | 
> 32 | 24 |  |  | C[C@H]1CCC[C@@]2(C1)[C@@H]1CC[C@@H](C1)[C@@H]2N.Cl [Compound 214-P2-A] | −7.57 | −24.69 |  |  |  | 
 |  | > 16 | 2.2 | NC1C2CCC(C2)C12CCC(O)C2 (racemic) [Compound 249A, rac-3-aminospiro[bicyclo[2.2.1]heptane-2,1′-cyclopentan]-3′-ol] |  |  | −7.2 | −98.1 |  | 
 |  | 13.5 | 2.29 | Cl.N[C@@H]1[C@@H]2CC[C@@H](C2)C12CC1CCC2CC1 (stereo partly drawn) [Compound 239, (1S,3R,4R)-spiro[bicyclo[2.2.1]heptane-2,2′-bicyclo[2.2.2]octan]-3-amine hydrochloride] |  |  | 62.7 | −83.1 |  | 
 |  | > 16 | 6.38 | NC1C2CCC(C2)C12CCC(O)C2 (racemic) [Compound 249C, rac-3-aminospiro[bicyclo[2.2.1]heptane-2,1′-cyclopentan]-3′-ol] |  |  | −11.9 | −74.4 |  | 
 |  | > 16 | 15.5 | COC1CC2(CC1OC)C1CCC(C1)C2N.Cl (racemic) [Compound 229, rac-3′,4′-dimethoxyspiro[bicyclo[2.2.1]heptane-2,1′-cyclopentan]-3-amine hydrochloride] |  |  | 10.3 | −48.1 |  | 
> 32 | 10.5 |  |  | C[C@@H]1CCC[C@]2(C1)[C@H]1CC[C@H](C1)[C@H]2N.Cl [Compound 214-P1-A] | 3.96 | −26.27 |  |  |  | 
11.9 | 0.47 |  |  | CC1(C)[C@@H]2CC[C@@H](C2)[C@@H]1N (single isomer, unassigned) [Compound 201-P2, hydrochloride] | 68.51 | −85.5 |  |  |  | 
 |  | > 16 | > 16 | CC1(CC2CC2)C2CCC(C2)C1N.Cl (racemic) [Compound 244, rac-3-(cyclopropylmethyl)-3-methylbicyclo[2.2.1]heptan-2-amine hydrochloride] |  |  |  |  | −9.0 | −35.0
> 16 | 0.1 |  |  | C[C@H]1CC[C@]2(C1)[C@@H]1CC[C@@H](C1)[C@@H]2N.Cl [Compound 210-P2-B] | 30.21 | −66.02 |  |  |  | 
 |  |  | > 16 | Cl.N[C@@H]1[C@@H]2CC[C@@H](C2)[C@]12CCC[C@@H](CO)C2 [Compound 220-P2, ((1S,2R,3R,3′R,4R)-3-aminospiro[bicyclo[2.2.1]heptane-2,1′-cyclohexan]-3′-yl)methanol hydrochloride] |  |  |  | 9.4 |  | 
 |  | > 16 | 6.99 | CC(C)[C@@]1(C)[C@H]2CC[C@H](C2)[C@@H]1N.Cl [Compound 246-B, (1R,2S,3S,4S)-3-isopropyl-3-methylbicyclo[2.2.1]heptan-2-amine hydrochloride] |  |  | 6.2 | −69.3 |  | 
2.11 | 0.05 |  |  | CC[C@]1(C)[C@H]2CC[C@H](C2)[C@H]1N.Cl (racemic) [Compound 202-rac] | 125.82 | −76.19 |  |  |  | 
> 32 | 12.1 |  |  | C[C@H]1CCC[C@]2(C1)[C@H]1CC[C@H](C1)[C@H]2N.Cl [Compound 214-P1-B] | −12.08 | −58.73 |  |  |  | 
> 5.6 | 1.22 |  |  | C[C@@H]1CC[C@]2(C1)[C@H]1CC[C@H](C1)[C@H]2N.Cl [Compound 211-P1-A] | 9.39 | −87.44 |  |  |  | 
 |  | > 16 | 1.77 | Cl.NC1C2CCC(C2)C12CCOCC2 (racemic) [Compound 235, rac-tetrahydrospiro[bicyclo[2.2.1]heptane-2,4′-pyran]-3-amine hydrochloride] |  |  | −6.6 | −88.6 |  | 
 |  | > 16 | > 16 | CN(C)CC1CCCC2(C1)C1CCC(C1)C2N.Cl (racemic) [Compound 223, rac-3′-((dimethylamino)methyl)spiro[bicyclo[2.2.1]heptane-2,1′-cyclohexan]-3-amine hydrochloride] |  |  | 25.7 | −12 |  | 
 |  | > 16 | 3.6 | Cl.N[C@H]1[C@@H]2CC[C@@H](C2)C12CCCC(C(=O)N1CCCCC1)C2 (stereo partly drawn) [Compound 227-1, ((1S,3S,4R)-3-aminospiro[bicyclo[2.2.1]heptane-2,1′-cyclohexan]-3′-yl)(piperidin-1-yl)methanone hydrochloride] |  |  | −7.0 | −79.5 |  | 
 |  |  | > 16 | Cl.N[C@@H]1[C@@H]2CC[C@@H](C2)[C@]12CCC[C@H](CO)C2 [Compound 220-P1, ((1S,2R,3R,3′S,4R)-3-aminospiro[bicyclo[2.2.1]heptane-2,1′-cyclohexan]-3′-yl)methanol hydrochloride] |  |  |  | 6.0 |  | 

Compound | EC50 (MUC1-wt; read-out: WT EC50 (Cytoplasm)) [µM] | EC50 (MUC1-fs; read-out: EC50(Spot)) [µM] | EC50 (MUC1-wt; read-out: WT EC50) [µM] | EC50 (MUC1-fs; read-out: EC50) [µM] | WT ECMax (%) (MUC1-wt) | ECMax (%) (MUC1-fs) | WT EMax (MUC1-wt) | Emax (MUC1-fs) | WT EMax (MUC1-wt; hydrochloride) | Emax (MUC1-fs; hydrochloride)
CC[C@@]1(Cc2ccccc2)[C@H]2CC[C@H](C2)[C@H]1N [Compound 222-P1, (1R,2R,3R,4S)-3-benzyl-3-ethylbicyclo[2.2.1]heptan-2-amine] |  |  |  | > 16 |  |  |  | −17.9 |  | 
CCC1(CC)[C@H]2CC[C@H](C2)[C@H]1N [Compound 204-P1] | 3.32 | 0.03 |  |  | 197.55 | −118.54 |  |  |  | 
(1S,3R,4R)-spiro[bicyclo[2.2.1]heptane-3,1′-cyclopentan]-2-amine hydrochloride [Compound 209-P2] | 2.06 | 0.01 |  |  | −210 | −64.28 |  |  |  | 
C[C@@]1(Cc2ccccc2)[C@H]2CC[C@H](C2)[C@H]1N.Cl (racemic) [Compound 207] | > 32 | > 32 |  |  | 5.9 | −25.6 |  |  |  | 
C[C@]1(c2ccccc2)[C@H]2CC[C@H](C2)[C@H]1N (racemic) [Compound 218, rac-(1R,2R,3R,4S)-3-methyl-3-phenylbicyclo[2.2.1]heptan-2-amine] |  |  | > 16 | 13.5 |  |  | −15.4 | −54.7 |  | 
Cl.NC1(c2ccccc2)C2CCC(C2)C12CCCC2 (racemic) [Compound 250, rac-3-phenylspiro[bicyclo[2.2.1]heptane-2,1′-cyclopentan]-3-amine hydrochloride] |  |  | > 16 | 7.83 |  |  | 8.2 | −86.3 |  | 
CC[C@]1(Cc2ccccc2)[C@@H]2CC[C@@H](C2)[C@@H]1N [Compound 222-P2, (1S,2S,3S,4R)-3-benzyl-3-ethylbicyclo[2.2.1]heptan-2-amine] |  |  |  | > 16 |  |  |  | 19.0 |  | 
